Source: patent US20080051419A1, “AMINE DERIVATIVES USEFUL AS ANTICANCER AGENTS” (PFIZER INC., priority 2006, published 2008)
Where two headings read alike, the source gives them in different places.

Biological target: T1, Akt1 (Homo sapiens, UniProt P31749, S473D)
T1 construct: The version of Akt used in these studies lacks the pleckstrin homology (PH) domain
Assay: Akt1 kinase assay, fluorescence polarization (IMAP)
Assay type: biochemical
Procedure: The Akt1 kinase assay is based on the measurement of fluorescence polarization using IMAP technology (Molecular Devices Corporation #R8062). Two microliters of inhibitor compounds diluted to a concentration of 10 millimolar are added to column 2 of a polypropylene 96-well plate containing 98 microliters of 100% DMSO; the wells in columns 3-12 contain 60 microliters of 100% DMSO. The various test compounds are serially diluted 1:3 across the plate by pipetting 30 microliters of compounds into wells containing 60 microliters of 100% DMSO. Column 12 receives DMSO only and is used as a negative control for inhibition. The components of the wells are mixed and 15 microliters of each well are transferred to another 96-well plate already containing 60 microliters of reaction buffer (RB: 10 mM Tris-HCl, pH 7.5, 10 mM MgCl2, 0.1 mM EGTA, 0.01% Triton-X100 (Sigma #X-100), freshly added 1 mM DTT). After mixing, the […] reactions are assembled. First, five microliters of the above compound/reaction buffer mixture is transferred to the bottom of a 96-well black polystyrene reaction plate (Costar, #3694). Next, ten microliters of a solution containing 4 micromolar ATP and 40 nanomolar fluorescent-labeled Crosstide (Tamara-labeled […] peptide) are added. Then, 5 microliters (1.5 nanograms) of Akt protein in RB are added. The version of Akt used in these studies lacks the pleckstrin homology (PH) domain, and contains an aspartic acid residue in place of a serine residue in position 473 within the Akt1 hydrophobic motif. The Akt1 protein contains a polyhistidine tag at the amino terminus and is prephosphorylated on threonine at position 308 in order to activate latent kinase activity. Once the reaction components and inhibitors are assembled, the plates are gently tapped, covered with foil, and then incubated at ambient temperature for 30 minutes. IMAP beads (Molecular Devices) are then added (60 microliters of a 1:400 dilution of beads in RB). Plates are read on a Victor Plate Reader with the following settings: CW lamp filter: 544 nm, emission filter: 615 nm. Control values from wells lacking Akt protein are subtracted from the gross readings, and IC50 values are calculated using XLDA.

[1] = Table 1, concentration bins, read-out: Concentration Range at which exemplary compounds of formula I inhibit Akt kinase activity
[2] = Table 3, read-out: Avg Akt kinase, μM (50% inhibition)
[3] = average Akt kinase activity (IC50), read-out: Avg Akt kinase, μM (50% inhibition)

T1 sequence (P31749 118-480 S473D limits assumed, species assumed): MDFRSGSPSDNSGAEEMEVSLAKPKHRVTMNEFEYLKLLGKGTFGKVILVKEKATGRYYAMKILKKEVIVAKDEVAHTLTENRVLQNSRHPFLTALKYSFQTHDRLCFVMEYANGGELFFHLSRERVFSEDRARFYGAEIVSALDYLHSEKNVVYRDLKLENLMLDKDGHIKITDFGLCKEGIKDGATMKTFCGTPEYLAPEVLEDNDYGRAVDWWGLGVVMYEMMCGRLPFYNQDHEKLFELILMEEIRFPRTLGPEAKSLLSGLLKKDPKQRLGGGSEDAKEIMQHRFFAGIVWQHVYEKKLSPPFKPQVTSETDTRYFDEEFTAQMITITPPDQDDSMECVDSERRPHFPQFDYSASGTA

Compound: CCN(CC1(N)CCN(c2ncnc3[nH]cc(C)c23)C1)c1ccccc1 (stereo not shown) [Example 50, 3-{[ethyl(phenyl)amino]methyl}-1-(5-methyl-7H-pyrrolo[2,3-d]pyrimidin-4-yl)pyrrolidin-3-amine]
- IC50 [1]: 0.101 to 10 µM
- IC50 [2]: 0.116 µM

Compound: N-{[3-amino-1-(5-methyl-7H-pyrrolo[2,3-d]pyrimidin-4-yl)pyrrolidin-3-yl]methyl}pyrimidin-2-amine [Example 58]
- IC50 [2]: 0.123 µM

Compound: N[C@]1(CNC(=O)c2ccc(Cl)c(F)c2)CCN(c2ncnc3[nH]cc(Cl)c23)C1 [Example 83, N-{[(3S)-3-amino-1-(5-chloro-7H-pyrrolo[2,3-d]pyrimidin-4-yl)pyrrolidin-3-yl]methyl}-4-chloro-3-fluorobenzamide]
- IC50 [1]: 0.00251 to 0.01 µM
- IC50 [3]: 0.00915 µM

Compound: Cc1c[nH]c2ncnc(N3CCC(N)(CN(C)C(=O)c4ccccc4F)C3)c12 (stereo not shown) [Example 197, N-((3-amino-1-(5-methyl-7H-pyrrolo[2,3-d]pyrimidin-4-yl)pyrrolidin-3-yl)methyl)-2-fluoro-N-methylbenzamide]
- IC50 [1]: 0.101 to 10 µM
- IC50 (read-out: Avg Akt kinase, μM (50% inhibition)): 0.148 µM

Compound: Cc1c[nH]c2ncnc(N3CCC(N)(CNC(=O)c4ccccc4)C3)c12 (stereo not shown) [Example 69, N-((3-amino-1-(5-methyl-7H-pyrrolo[2,3-d]pyrimidin-4-yl)pyrrolidin-3-yl)methyl)benzamide]
- IC50 [1]: 0.0101 to 0.1 µM
- IC50 [3]: 0.0623 µM

Compound: CN(CC1(N)CCN(c2ncnc3[nH]cc(Cl)c23)C1)c1ccc(Cl)cc1 (stereo not shown) [Example 55, 3-{[(4-chlorophenyl)(methyl)-amino]methyl}-1-(5-chloro-7H-pyrrolo[2,3-d]pyrimidin-4-yl)pyrrolidin-3-amine]
- IC50 [1]: 0.0101 to 0.1 µM
- IC50 [2]: 0.012 µM

Compound: N[C@]1(CNC(=O)c2ccc(F)cc2Cl)CCN(c2ncnc3[nH]cc(Cl)c23)C1 [Example 107, N-{[(3S)-3-amino-1-(5-chloro-7H-pyrrolo[2,3-d]pyrimidin-4-yl)pyrrolidin-3-yl]methyl}-2-chloro-4-fluorobenzamide]
- IC50 [1]: 0.00025 to 0.0025 µM
- IC50 [3]: 0.0011 µM

Compound: Cc1c[nH]c2ncnc(N3CCC(N)(CN(C)c4ccccc4)C3)c12 (stereo not shown) [Example 48, 3-{[methyl(phenyl)amino]methyl}-1-(5-methyl-7H-pyrrolo[2,3-d]pyrimidin-4-yl)pyrrolidin-3-amine]
- IC50 [1]: 0.101 to 10 µM
- IC50 [2]: 0.12 µM

Compound: CCc1c[nH]c2ncnc(N3CC[C@](N)(CNC(=O)c4c(F)ccc(F)c4F)C3)c12 [Example 132]
- IC50 [1]: 0.0101 to 0.1 µM
- IC50 [3]: 0.0175 µM

Compound: CCc1c[nH]c2ncnc(N3CC[C@](N)(CNC(=O)c4ccccc4)C3)c12 [Example 110, N-{[(3S)-3-amino-1-(5-ethyl-7H-pyrrolo[2,3-d]pyrimidin-4-yl)pyrrolidin-3-yl]methyl}benzamide]
- IC50 [1]: 0.00251 to 0.01 µM
- IC50 [3]: 0.0073 µM

Compound: COC(=O)c1ccccc1NCC1(N)CCN(c2ncnc3[nH]nc(C)c23)C1 (stereo not shown) [Example 5, 2-{[3-Amino-1-(3-methyl-1H-pyrazolo[3,4-d]pyrimidin-4-yl)-pyrrolidin-3-ylmethyl]-amino}-benzoic acid methyl ester]
- IC50 [1]: 0.101 to 10 µM
- IC50 [2]: 0.394 µM

Compound: COC(=O)c1ccccc1NCC1(N)CCN(c2ncnc3[nH]cc(C)c23)C1 (stereo not shown) [Example 19]
- IC50 [1]: 0.00251 to 0.01 µM
- IC50 [2]: 0.01 µM

Compound: Cc1c[nH]c2ncnc(N3CCC(N)(CNc4cccc(OC(F)(F)F)c4)C3)c12 (stereo not shown) [Example 25, 1-(5-methyl-7H-pyrrolo[2,3-d]pyrimidin-4-yl)-3-({[3-(trifluoromethoxy)phenyl]amino}methyl)pyrrolidin-3-amine]
- IC50 [1]: 0.0101 to 0.1 µM
- IC50 [2]: 0.0145 µM

Compound: CCc1c[nH]c2ncnc(N3CC[C@](N)(CNC(=O)c4ccccc4Cl)C3)c12 [Example 128]
- IC50 [1]: 0.0101 to 0.1 µM
- IC50 [3]: 0.0147 µM

Compound: CCc1c[nH]c2ncnc(N3CCC(N)(COc4cccc(C(F)(F)F)c4)C3)c12 (stereo not shown) [Example 64]
- IC50 [1]: 0.0101 to 0.1 µM
- IC50 (Table 4, read-out: Avg Akt kinase, μM (50% inhibition)): 0.0215 µM

Compound: Cc1c[nH]c2ncnc(N3CC[C@](N)(CNc4cccc(C(F)(F)F)c4)C3)c12 [Example 13, (3S)-1-(5-methyl-7H-pyrrolo[2,3-d]pyrimidin-4-yl)-3-({[3-(trifluoromethyl)phenyl]amino}-methyl)pyrrolidin-3-amine]
- IC50 [1]: 0.00025 to 0.0025 µM
- IC50 [2]: 0.00226 µM

Compound: Cc1c[nH]c2ncnc(N3CCC(N)(CNc4cccc(C(F)(F)F)c4F)C3)c12 (stereo not shown) [Example 3]
- IC50 [1]: 0.00025 to 0.0025 µM
- IC50 [2]: 0.0012 µM

Compound: Cc1ccccc1C(=O)NC[C@@]1(N)CCN(c2ncnc3[nH]cc(C)c23)C1 [Example 127, N-{[(3S)-3-amino-1-(5-methyl-7H-pyrrolo[2,3-d]pyrimidin-4-yl)pyrrolidin-3-yl]methyl}-2-methylbenzamide]
- IC50 [1]: 0.0101 to 0.1 µM
- IC50 [3]: 0.0362 µM

Compound: Cc1c[nH]c2ncnc(N3CCC(N)(CNc4ccccc4N4CCOCC4)C3)c12 (stereo not shown) [Example 29, 1-(5-methyl-7H-pyrrolo[2,3-d]pyrimidin-4-yl)-3-{[(2-morpholin-4-ylphenyl)amino]methyl}pyrrolidin-3-amine]
- IC50 [1]: 0.0101 to 0.1 µM
- IC50 [2]: 0.0101 µM

Compound: Cc1c[nH]c2ncnc(N3CCC(N)(CNc4ccccc4N4CCCCC4)C3)c12 (stereo not shown) [Example 24, 1-(5-methyl-7H-pyrrolo[2,3-d]pyrimidin-4-yl)-3-{[(2-piperidin-1-ylphenyl)amino]methyl}pyrrolidin-3-amine]
- IC50 [1]: 0.0101 to 0.1 µM
- IC50 [2]: 0.0108 µM

Compound: N#Cc1c[nH]c2nccc(N3CCC(N)(CNc4ccccc4Oc4ccccc4)C3)c12 (stereo not shown) [Example 11, 4-(3-amino-3-{[(2-phenoxyphenyl)amino]methyl}pyrrolidin-1-yl)-1H-pyrrolo[2,3-b]pyridine-3-carbonitrile]
- IC50 [1]: 0.00251 to 0.01 µM

Compound: N[C@]1(CNC(=O)c2ccccc2Cl)CCN(c2ncnc3[nH]cc(Cl)c23)C1 [Example 85, N-{[(3S)-3-amino-1-(5-chloro-7H-pyrrolo[2,3-d]pyrimidin-4-yl)pyrrolidin-3-yl]methyl}-2-chlorobenzamide]
- IC50 [1]: 0.00251 to 0.01 µM
- IC50 [3]: 0.00643 µM

Compound: Cc1c[nH]c2ncnc(N3CCC(N)(CNc4cccc5c4CCCC5)C3)c12 (stereo not shown) [Example 35, 1-(5-methyl-7H-pyrrolo[2,3-d]pyrimidin-4-yl)-3-[(5,6,7,8-tetrahydronaphthalen-1-ylamino)methyl]pyrrolidin-3-amine]
- IC50 [1]: 0.00251 to 0.01 µM
- IC50 [2]: 0.00797 µM

Compound: Cc1c[nH]c2ncnc(N3CCC(N)(CN4CCCc5ccccc54)C3)c12 (stereo not shown) [Example 49, 3-(3,4-dihydroquinolin-1(2H)-ylmethyl)-1-(5-methyl-7H-pyrrolo[2,3-d]pyrimidin-4-yl)pyrrolidin-3-amine]
- IC50 [1]: 0.101 to 10 µM
- IC50 [2]: 0.131 µM

Compound: N[C@]1(CNC(=O)c2c(F)cccc2F)CCN(c2ncnc3[nH]cc(Cl)c23)C1 [Example 130]
- IC50 [1]: 0.00251 to 0.01 µM
- IC50 [3]: 0.00906 µM

Compound: CCCc1c[nH]c2ncnc(N3CC[C@@](N)(CNC(=O)c4cc(C)on4)C3)c12 [Example 95, N-{[(3R)-3-amino-1-(5-propyl-7H-pyrrolo[2,3-d]pyrimidin-4-yl)pyrrolidin-3-yl]methyl}-5-methylisoxazole-3-carboxamide]
- IC50 [1]: 0.00251 to 0.01 µM
- IC50 [3]: 0.00433 µM

Compound: N#Cc1c[nH]c2ncnc(N3CCC(N)(CNc4ccc(Cl)cc4)C3)c12 (stereo not shown) [Example 4, 4-{3-amino-3-[(4-chloro-phenylamino)-methyl]-pyrrolidin-1-yl}-7H-pyrrolo[2,3-d]pyrimidine-5-carbonitrile]
- IC50 [1]: 0.0101 to 0.1 µM
- IC50 [2]: 0.041 µM
